Results on 2 molecules are retold here after US20230026808A1, “COMPOUNDS, COMPOSITIONS, AND METHODS FOR TREATING ISCHEMIA-REPERFUSION INJURY AND/OR LUNG INJURY” (YALE UNIVERSITY, priority 2019, published 2023).

Common to all, as to format: cell-based
For assay [1], the system named is primary cultured mouse lung endothelial cells. Kind of assay: H2O2 on primary cultured mouse lung endothelial cells (TEER, AKT phosphorylation). Particulars: H2O2 at low concentrations.
The test system of assay [2] is mouse pulmonary endothelial cells. In words: TEER of mouse endothelial cells co-cultured with neutrophils. Particulars: fMLP-stimulated neutrophils; catalase 100 U/ml. The procedure:
ECIS 8W10E+ arrays (Applied BioPhysics) were coated with 10 μg/ml of poly-D-lysine (PDL) and washed with sterile water. Complete EBM-2 media (300 μl) was added to each well for a quick impedance background check. Subsequently, immortalized mouse pulmonary endothelial cells were seeded in a density of 60,000 cells/well in 300 μl EBM-2 medium in the coated arrays and incubated them at 37° C. in a CO2 incubator. Electrical resistance of the cell layer was recorded continuously on an ECIS system (Applied BioPhysics) until a stable resistance of approximately 600-700 ohms was achieved, after which media were removed from wells and replaced with 100 μl of assay buffer (Hanks buffer with Ca^2+ and Mg^2+0.25% BSA). Cells were allowed to re-equilibrate at 37° C. for 2 hours, before 1 μl of SOD (60 U/ml), catalase (100 U/ml), or mock were added to wells for 30 min followed by addition of 50 μl of mouse neutrophils in assay buffer containing 5 μM fMLP. Data were collected real-time throughout the experiment. All ECIS measurements were analyzed at an AC frequency of 4 kHz, which was identified as the most sensitive frequency for this cell type by frequency scans along an entire frequency range (1 kHz-64 kHz). The TEER values were normalized against those co-cultured with WT neutrophils treated with mock.

For assay [3], the system named is mouse primary lung endothelial cells. Kind of assay: Bi-layer co-culture of neutrophils with endothelial cells, AKT phosphorylation. Particulars: fMLP-stimulated neutrophils; SOD 60 U/ml, catalase 100 U/ml. As to the method: Mouse primary lung endothelial cells (MLEC) were first plated on the outside of the polycarbonate membrane (25,000 cells/cm^2) of the Transwell inserts (24-well type, 0.4-μm pore size, Corning, Inc. 353095), and placed upside down in the wells of the culture plate. After the cells had adhered, the Transwell inserts were inverted and reinserted into the wells of the plate. The medium was replaced 24 h after seeding with serum-free medium. SOD (60 U/ml), catalase (100 U/ml), or mock were added to the lower chambers 2 h later for 30 min. Mouse neutrophils stimulated with 5 μM fMLP were then plated on the top surface of the insert (6×10^6 cells/cm^2) for 30 min. At the end of the incubation period, neutrophils on the top side of the inserts were removed by cotton swabs, and endothelial cells on the other side of the inserts were lysed with SDS-PAGE sample buffer for Western analysis.

Take `OO` [H2O2]: in assay [1], the AKT phosphorylation entry is on record as “stimulates AKT phosphorylation” and the “trans-endothelial electrical resistance (TEER)” value is “enhanced trans-endothelial electrical resistance (TEER)”.
Turning to catalase, the “difference in TEER between DKO and WT neutrophil co-culture” value in assay [2] is “abrogated”. Moreover, the “phospho-AKT elevation by co-cultured MAP3K2/3 DKO neutrophils” value in assay [3] is reported as “abrogated”.
